This is an account of results in paper PMC5218480 (PLoS ONE, 2017).

The experiment deals with MV-4-11 cells. Description: Gene expression microarray analysis (Affymetrix PrimeView) and GSEA. In kind it is cell-based, human. Also on record: RFU PODN (11730768_x_at) / Fold change /veh PODN (11730768_x_at) / RFU LINC00158 (11744669_a_at) / Fold change /veh LINC00158 (11744669_a_at) / RFU DUSP10 (11751237_a_at) / Fold change /veh DUSP10 (11751237_a_at) / RFU ID3 (11757404_x_at) / Fold change /veh ID3 (11757404_x_at) / RFU PLEKHG5 (11737974_s_at) / Fold change /veh PLEKHG5 (11737974_s_at) / RFU LRRC4B (11730491_at) / Fold change /veh LRRC4B (11730491_at) / RFU GIMAP4 (11747438_a_at) / Fold change /veh GIMAP4 (11747438_a_at) / RFU KRT8 (11758183_x_at) / Fold change /veh KRT8 (11758183_x_at) / RFU CNN1 (11734310_a_at) / Fold change /veh CNN1 (11734310_a_at) / RFU VPS37D (11726825_at) / Fold change /veh VPS37D (11726825_at) / RFU C10orf10 (11716522_x_at) / Fold change /veh C10orf10 (11716522_x_at) / RFU KIR2DL2 /// KIR2DL4 /// KIR2DL5A /// KIR2DL5B /// KIR2DS1 /// KIR2DS2 /// KIR2DS3 /// KIR2DS4 /// KIR3DL3 /// KIR3DL3 /// KIR3DS1 (11738374_at) / Fold change /veh KIR2DL2 /// KIR2DL4 /// KIR2DL5A /// KIR2DL5B /// KIR2DS1 /// KIR2DS2 /// KIR2DS3 /// KIR2DS4 /// KIR3DL3 /// KIR3DL3 /// KIR3DS1 (11738374_at) / RFU C1QL1 (11718748_at) / Fold change /veh C1QL1 (11718748_at) / RFU TMPRSS4 (11747572_a_at) / Fold change /veh TMPRSS4 (11747572_a_at) / RFU HAMP (11756126_x_at) / Fold change /veh HAMP (11756126_x_at) / RFU RNFT2 (11725882_a_at) / Fold change /veh RNFT2 (11725882_a_at) / RFU NR4A2 (11747474_a_at) / Fold change /veh NR4A2 (11747474_a_at) / RFU ABCC12 (11746883_a_at) / Fold change /veh ABCC12 (11746883_a_at) / RFU TMEM136 (11760407_x_at) / Fold change /veh TMEM136 (11760407_x_at) / RFU CLDN22 /// WWC2 (11732394_at) / Fold change /veh CLDN22 /// WWC2 (11732394_at) / RFU HLA-DPB1 (11760878_x_at) / Fold change /veh HLA-DPB1 (11760878_x_at) / RFU SPINT1 (11716480_a_at) / Fold change /veh SPINT1 (11716480_a_at) / RFU GAP43 (11754022_s_at) / Fold change /veh GAP43 (11754022_s_at) / RFU A4GNT (11735810_at) / Fold change /veh A4GNT (11735810_at) / RFU PRB3 (11715151_x_at) / Fold change /veh PRB3 (11715151_x_at) / RFU TUBB4B (11761932_at) / Fold change /veh TUBB4B (11761932_at) / RFU CAPN14 (11732068_a_at) / Fold change /veh CAPN14 (11732068_a_at) / RFU TMCC2 (11721928_a_at) / Fold change /veh TMCC2 (11721928_a_at) / RFU IRGQ (11745062_a_at) / Fold change /veh IRGQ (11745062_a_at) / RFU FAM174B (11720279_a_at) / Fold change /veh FAM174B (11720279_a_at) / RFU TMPRSS4 (11748680_a_at) / Fold change /veh TMPRSS4 (11748680_a_at) / RFU FAM212B (11763350_a_at) / Fold change /veh FAM212B (11763350_a_at) / RFU PLEKHG5 (11743358_a_at) / Fold change /veh PLEKHG5 (11743358_a_at) / RFU ZSCAN30 (11745921_a_at) / Fold change /veh ZSCAN30 (11745921_a_at) / RFU CMKLR1 (11741424_a_at) / Fold change /veh CMKLR1 (11741424_a_at) / RFU LOC101060620 /// MAPK8IP1 (11723275_at) / Fold change /veh LOC101060620 /// MAPK8IP1 (11723275_at) / RFU SPTSSB (11747773_x_at) / Fold change /veh SPTSSB (11747773_x_at) / RFU PRSS12 (11739890_at) / Fold change /veh PRSS12 (11739890_at) / RFU BIN1 (11741810_x_at) / Fold change /veh BIN1 (11741810_x_at) / RFU WNT11 (11732464_a_at) / Fold change /veh WNT11 (11732464_a_at) / RFU C10orf10 (11716521_a_at) / Fold change /veh C10orf10 (11716521_a_at) / RFU C5orf56 (11738089_at) / Fold change /veh C5orf56 (11738089_at) / RFU CYB561 (11721691_x_at) / Fold change /veh CYB561 (11721691_x_at) / RFU ANKRD19P (11752326_a_at) / Fold change /veh ANKRD19P (11752326_a_at) / RFU OR2T12 /// OR2T33 /// OR2T8 (11738714_s_at) / Fold change /veh OR2T12 /// OR2T33 /// OR2T8 (11738714_s_at) / RFU VCAN (11748164_a_at) / Fold change /veh VCAN (11748164_a_at) / RFU JSRP1 (11732532_at) / Fold change /veh JSRP1 (11732532_at) / RFU KRTAP10-11 (11738290_x_at) / Fold change /veh KRTAP10-11 (11738290_x_at) / RFU MYO3A (11730013_a_at) / Fold change /veh MYO3A (11730013_a_at) / RFU EBF3 (11725865_a_at) / Fold change /veh EBF3 (11725865_a_at) / RFU CAMK2N1 (11719241_x_at) / Fold change /veh CAMK2N1 (11719241_x_at) / RFU C5orf56 (11738088_a_at) / Fold change /veh C5orf56 (11738088_a_at) / RFU OLFML3 (11715873_a_at) / Fold change /veh OLFML3 (11715873_a_at) / RFU LOC100653217 /// NTM (11731650_a_at) / Fold change /veh LOC100653217 /// NTM (11731650_a_at) / RFU MAPK11 (11762145_a_at) / Fold change /veh MAPK11 (11762145_a_at) / RFU FIZ1 (11724087_x_at) / Fold change /veh FIZ1 (11724087_x_at) / RFU OASL (11726364_x_at) / Fold change /veh OASL (11726364_x_at) / RFU SOX15 (11748057_x_at) / Fold change /veh SOX15 (11748057_x_at) / RFU CD79A (11719716_a_at) / Fold change /veh CD79A (11719716_a_at) / RFU HIST1H1D (11736915_at) / Fold change /veh HIST1H1D (11736915_at) / RFU CASKIN2 (11723855_a_at) / Fold change /veh CASKIN2 (11723855_a_at) / RFU LOC730098 (11760151_x_at) / Fold change /veh LOC730098 (11760151_x_at) / RFU OR4N2 (11742367_at) / Fold change /veh OR4N2 (11742367_at) / RFU PRRT2 (11749266_a_at) / Fold change /veh PRRT2 (11749266_a_at) / RFU SNX32 (11753110_a_at) / Fold change /veh SNX32 (11753110_a_at) / RFU CDHR5 (11726645_a_at) / Fold change /veh CDHR5 (11726645_a_at) / RFU RCAN1 (11760418_a_at) / Fold change /veh RCAN1 (11760418_a_at) / RFU FAM167A (11723789_a_at) / Fold change /veh FAM167A (11723789_a_at) / RFU FAM26E (11764081_at) / Fold change /veh FAM26E (11764081_at) / RFU ISYNA1 (11749810_s_at) / Fold change /veh ISYNA1 (11749810_s_at) / RFU ACY1 (11761880_at) / Fold change /veh ACY1 (11761880_at) / RFU 11764098_at / Fold change /veh 11764098_at / RFU SAMD14 (11745864_x_at) / Fold change /veh SAMD14 (11745864_x_at) / RFU NPB (11741838_a_at) / Fold change /veh NPB (11741838_a_at) / RFU TMPRSS6 (11731388_a_at) / Fold change /veh TMPRSS6 (11731388_a_at) / RFU KRTAP10-2 (11738614_at) / Fold change /veh KRTAP10-2 (11738614_at) / RFU ARHGAP8 /// PRR5-ARHGAP8 (11727945_x_at) / Fold change /veh ARHGAP8 /// PRR5-ARHGAP8 (11727945_x_at) / RFU KRTAP5-7 /// NADSYN1 (11734609_at) / Fold change /veh KRTAP5-7 /// NADSYN1 (11734609_at) / RFU RASL12 (11751679_a_at) / Fold change /veh RASL12 (11751679_a_at) / RFU CDKN2B (11736163_a_at) / Fold change /veh CDKN2B (11736163_a_at) / RFU PRF1 (11729649_at) / Fold change /veh PRF1 (11729649_at) / RFU, ZNF638 /// ZNF638-IT1 / Fold change vs veh, ZNF638 /// ZNF638-IT1 / RFU, PANK3 / Fold change vs veh, PANK3 / RFU, SH3YL1 / Fold change vs veh, SH3YL1 / RFU, ZEB2 / Fold change vs veh, ZEB2 / RFU, NRIP1 / Fold change vs veh, NRIP1 / RFU, PTTG1IP / Fold change vs veh, PTTG1IP / RFU, CAPN2 / Fold change vs veh, CAPN2 / RFU, MED14 / Fold change vs veh, MED14 / RFU, SNORA58 / Fold change vs veh, SNORA58 / RFU, C1orf63 / Fold change vs veh, C1orf63 / RFU, LRRFIP1 / Fold change vs veh, LRRFIP1 / RFU, NDUFAF7 / Fold change vs veh, NDUFAF7 / RFU, SLC12A2 / Fold change vs veh, SLC12A2 / RFU, IBTK / Fold change vs veh, IBTK / RFU, ESF1 / Fold change vs veh, ESF1 / Fold change vs veh, TMEM50B / RFU, TAOK1 / Fold change vs veh, TAOK1 / RFU, ACBD3 / Fold change vs veh, ACBD3 / RFU, TMA16 / Fold change vs veh, TMA16 / RFU, RWDD3 / Fold change vs veh, RWDD3 / RFU, BCAT1 / Fold change vs veh, BCAT1 / RFU, EDEM3 / Fold change vs veh, EDEM3 / RFU, TMEM33 / Fold change vs veh, TMEM33 / RFU, WDR75 / Fold change vs veh, WDR75 / RFU, AHCTF1 / Fold change vs veh, AHCTF1 / RFU, TFRC / Fold change vs veh, TFRC / RFU, ZDHHC17 / Fold change vs veh, ZDHHC17 / RFU, NOM1 / Fold change vs veh, NOM1 / RFU, ARL8B / Fold change vs veh, ARL8B / RFU, ZBTB11 / Fold change vs veh, ZBTB11 / RFU, TAMM41 / Fold change vs veh, TAMM41 / RFU, KIAA1704 /// LOC100996395 / Fold change vs veh, KIAA1704 /// LOC100996395 / RFU, ING1 / Fold change vs veh, ING1 / RFU, TRMT61B / Fold change vs veh, TRMT61B / RFU, FUBP3 / Fold change vs veh, FUBP3 / RFU, TP53 / Fold change vs veh, TP53 / RFU, TNKS2 / Fold change vs veh, TNKS2 / RFU, ZFP14 / Fold change vs veh, ZFP14 / RFU, ACTR2 / Fold change vs veh, ACTR2 / RFU, PPP3R1 / Fold change vs veh, PPP3R1 / RFU, PIK3R1 / Fold change vs veh, PIK3R1 / RFU, HNRNPA1 / Fold change vs veh, HNRNPA1 / RFU, RNF170 / Fold change vs veh, RNF170 / RFU, ZNF28 / Fold change vs veh, ZNF28 / RFU, RNGTT / Fold change vs veh, RNGTT / RFU, OGT / Fold change vs veh, OGT / RFU, BRD1 / Fold change vs veh, BRD1 / RFU, MARS / Fold change vs veh, MARS / RFU, ZNF655 / Fold change vs veh, ZNF655 / RFU, FAHD1 / Fold change vs veh, FAHD1 / RFU, BDP1 / Fold change vs veh, BDP1 / RFU, LRRCC1 / Fold change vs veh, LRRCC1 / RFU, ARID1A / Fold change vs veh, ARID1A / RFU, ZNF146 / Fold change vs veh, ZNF146 / RFU, ZNF330 / Fold change vs veh, ZNF330 / RFU, GPN3 / Fold change vs veh, GPN3 / RFU, C9orf123 / Fold change vs veh, C9orf123 / RFU, N4BP2L2 / Fold change vs veh, N4BP2L2 / RFU, ARFIP1 / Fold change vs veh, ARFIP1 / RFU, FAM179B / Fold change vs veh, FAM179B / RFU, BCL10 / Fold change vs veh, BCL10 / RFU, UHRF1BP1L / Fold change vs veh, UHRF1BP1L / RFU, BET1 / Fold change vs veh, BET1 / RFU, CNOT2 / Fold change vs veh, CNOT2 / RFU, ZNF268 / Fold change vs veh, ZNF268 / Fold change vs veh, ZNF507 / RFU, DGCR2 / Fold change vs veh, DGCR2 / RFU, WDSUB1 / Fold change vs veh, WDSUB1 / Fold change vs veh, HSP90B1 /// MIR3652 / RFU, ADSS / Fold change vs veh, ADSS / RFU, GK / Fold change vs veh, GK / RFU, ZNF148 / Fold change vs veh, ZNF148 / RFU, TAF9 / Fold change vs veh, TAF9 / RFU, SLC1A5 / Fold change vs veh, SLC1A5 / RFU, SLMO2 / Fold change vs veh, SLMO2 / RFU, ABCC4 / Fold change vs veh, ABCC4 / RFU, LOC101060439 /// RAP1B / Fold change vs veh, LOC101060439 /// RAP1B / RFU, RFX7 / Fold change vs veh, RFX7 / RFU, GTPBP10 / Fold change vs veh, GTPBP10 / RFU, CNEP1R1 / Fold change vs veh, CNEP1R1 / RFU, BIVM-ERCC5 /// ERCC5 / Fold change vs veh, BIVM-ERCC5 /// ERCC5 / RFU, ILF3 / Fold change vs veh, ILF3 / RFU 11762660_at / Fold change /veh 11762660_at / RFU VCAN (11757783_s_at) / Fold change /veh VCAN (11757783_s_at) / RFU DDX43 (11728927_at) / Fold change /veh DDX43 (11728927_at) / RFU KRT8 (11758188_x_at) / Fold change /veh KRT8 (11758188_x_at) / RFU NKD1 (11759106_at) / Fold change /veh NKD1 (11759106_at) / RFU SRD5A1 (11742802_a_at) / Fold change /veh SRD5A1 (11742802_a_at) / RFU TPSAB1 /// TPSB2 (11721975_s_at) / Fold change /veh TPSAB1 /// TPSB2 (11721975_s_at) / RFU GSTM3 (11746129_a_at) / Fold change /veh GSTM3 (11746129_a_at) / RFU IL23R (11737362_x_at) / Fold change /veh IL23R (11737362_x_at) / RFU TMEM51 (11727254_a_at) / Fold change /veh TMEM51 (11727254_a_at) / RFU PIWIL2 (11732686_x_at) / Fold change /veh PIWIL2 (11732686_x_at) / RFU ORM1 (11744905_x_at) / Fold change /veh ORM1 (11744905_x_at) / RFU CCDC152 (11743942_at) / Fold change /veh CCDC152 (11743942_at) / RFU ECM1 (11717891_a_at) / Fold change /veh ECM1 (11717891_a_at) / RFU IL23R (11748794_a_at) / Fold change /veh IL23R (11748794_a_at) / RFU TNFAIP8L3 (11732012_x_at) / Fold change /veh TNFAIP8L3 (11732012_x_at) / RFU MBOAT4 (11741988_at) / Fold change /veh MBOAT4 (11741988_at) / RFU 11764193_at / Fold change /veh 11764193_at / RFU TMEM53 (11763286_at) / Fold change /veh TMEM53 (11763286_at) / RFU MAGEB2 (11727129_at) / Fold change /veh MAGEB2 (11727129_at) / RFU TMEM200A (11744735_a_at) / Fold change /veh TMEM200A (11744735_a_at) / RFU CCDC152 (11751479_a_at) / Fold change /veh CCDC152 (11751479_a_at) / RFU FAM211A (11726209_a_at) / Fold change /veh FAM211A (11726209_a_at) / RFU RGS16 (11746705_a_at) / Fold change /veh RGS16 (11746705_a_at) / RFU VCAN (11755009_s_at) / Fold change /veh VCAN (11755009_s_at) / RFU RHOB (11743442_s_at) / Fold change /veh RHOB (11743442_s_at) / RFU RGS16 (11720943_a_at) / Fold change /veh RGS16 (11720943_a_at) / RFU RGS16 (11720944_at) / Fold change /veh RGS16 (11720944_at) / RFU, VPS4B / Fold change vs veh, VPS4B / RFU, CREB1 / Fold change vs veh, CREB1 / RFU, DNAJC13 / Fold change vs veh, DNAJC13 / RFU, GNAQ / Fold change vs veh, GNAQ / RFU, CDK5R1 / Fold change vs veh, CDK5R1 / RFU, ZRANB3 / Fold change vs veh, ZRANB3 / RFU, CUL4A / Fold change vs veh, CUL4A / RFU, CCNY / Fold change vs veh, CCNY / RFU, UFL1 / Fold change vs veh, UFL1 / RFU, COG3 / Fold change vs veh, COG3 / RFU, DIAPH2 / Fold change vs veh, DIAPH2 / RFU, SKA2 / Fold change vs veh, SKA2 / RFU, AFF3 / Fold change vs veh, AFF3 / RFU, LMF1 / Fold change vs veh, LMF1 / RFU, IPO11 / Fold change vs veh, IPO11 / RFU, DFFB / Fold change vs veh, DFFB / RFU, FOXP1 / Fold change vs veh, FOXP1 / RFU, CARD8 / Fold change vs veh, CARD8 / RFU, STRN3 / Fold change vs veh, STRN3 / RFU, ADK / Fold change vs veh, ADK / RFU, RASSF2 / Fold change vs veh, RASSF2 / RFU, WIPF1 / Fold change vs veh, WIPF1 / RFU, LARP1B / Fold change vs veh, LARP1B / RFU, RASA1 / Fold change vs veh, RASA1 / RFU, RB1 / Fold change vs veh, RB1 / RFU, PPFIA1 / Fold change vs veh, PPFIA1 / RFU, MAT2A / Fold change vs veh, MAT2A / RFU, CCT5 / Fold change vs veh, CCT5 / RFU, WDR92 / Fold change vs veh, WDR92 / RFU, CUX1 / Fold change vs veh, CUX1 / RFU, TTC7A / Fold change vs veh, TTC7A / RFU, TMEM135 / Fold change vs veh, TMEM135 / RFU, DEPTOR / Fold change vs veh, DEPTOR / RFU, CPM / Fold change vs veh, CPM / RFU, DNAJB6 / Fold change vs veh, DNAJB6 / RFU, CACNA2D3 / Fold change vs veh, CACNA2D3 / RFU, DTX4 / Fold change vs veh, DTX4 / RFU, TFCP2 / Fold change vs veh, TFCP2 / RFU, GMCL1 /// GMCL1P1 / Fold change vs veh, GMCL1 /// GMCL1P1 / RFU, AEBP2 / Fold change vs veh, AEBP2 / RFU, SNHG1 /// SNORD22 /// SNORD25 /// SNORD26 /// SNORD27 /// SNORD28 /// SNORD29 /// SNORD31 / Fold change vs veh, SNHG1 /// SNORD22 /// SNORD25 /// SNORD26 /// SNORD27 /// SNORD28 /// SNORD29 /// SNORD31 / Fold change (Aza/veh), C12orf56 (ProbeSet 11735607_a_at) / Fold change (ACY-1035/veh), C12orf56 (ProbeSet 11735607_a_at) / Fold change (Aza/veh), FGFR1OP (ProbeSet 11751329_s_at) / Fold change (ACY-1035/veh), FGFR1OP (ProbeSet 11751329_s_at) / Fold change (Aza/veh), VPS36 (ProbeSet 11739960_a_at) / Fold change (ACY-1035/veh), VPS36 (ProbeSet 11739960_a_at) / RFU SYPL1 (11715823_x_at) / Fold change /veh SYPL1 (11715823_x_at) / RFU IGFBP7 (11715501_s_at) / Fold change /veh IGFBP7 (11715501_s_at) / RFU REEP3 (11722064_at) / Fold change /veh REEP3 (11722064_at) / RFU IGLL1 (11728026_x_at) / Fold change /veh IGLL1 (11728026_x_at): dose or concentration left out as unconfirmed. As to conditions: MV-4-11 cells, 48 hours.

Turning to `Nc1ccc(-c2cccs2)cc1NC(=O)c1ccc2c(c1)cc(C1CC1)n2CCN1CCOCC1` [ACY-1035], the “RFU PRRT2 (11749266_a_at)” value is on record as 47.30 RFU.
